{"source": "patent US20250235531A1", "about": "“MUCOSAL ADMINISTRATION METHODS AND FORMULATIONS” (priority 2022, published 2025)", "key": {"HeLa": {"system": "HeLa", "assay": "Protein expression in human cervical cancer epithelial cell (HeLa) model, NPI-Luc mRNA LNPs", "type": "cell-based", "conditions": "LNP core Compound 18, DSPC", "experimental": "NPI-Luc is a dual read reporter made by adding a 5×V5 tag and a C-myc nuclear localization sequence at the N-terminus of Firefly Luciferase to enhance the signal to noise ratio. Protein expression can be detected using OneGLo assays with luminescence readout or by immunofluorescence with anti-V5 antibodies. Protein expression was evaluated according to the procedure outlined in Example 6. The LNPs are dosed in 4 wells and the average response was reported. For the HeLa assay the luminescence read (RLU) were normalized to cell counts."}, "[1]": {"assay": "Luciferase mRNA nanoparticle biophysical data (DLS diameter and PDI, Ribogreen encapsulation)", "type": "physicochemical", "conditions": "luciferase mRNA nanoparticles (IL1:DSPC:cholesterol:PEG-DMG-2K) modified with the lipid amine; for Diameter (nm) / PDI: DLS; for % Encapsulation (Ribogreen): Ribogreen assay", "experimental": "Lipids are dissolved in ethanol at a concentration of 24 mg/mL and molar ratios of 49.0:11.2:39.3:0.5 (IL1:DSPC:cholesterol:PEG-DMG-2K) and mixed with the acidification buffer (45 mM acetate buffer at pH 4). The lipid solution and acidification buffer are mixed using a multi-inlet vortex mixer at a 3:7 volumetric ratio of lipid:buffer for mixer 1 and mixer 2 and a 1:3 volumetric ratio of lipid:buffer (25% ethanol) for mixer 3. After a 5 second residence time, the resulting nanoparticles are mixed with 55 mM sodium acetate at pH 5.6 at a volumetric ratio of 5:7 of nanoparticle:buffer. See Table 24 for mixing parameters. The resulting dilute nanoparticles are then buffer exchanged and concentrated using tangential flow filtration (TFF) into a final buffer containing 5 mM sodium acetate pH 5.0. Then a 70% sucrose solution in 5 mM acetate buffer at pH 5 is subsequently added.\nThe resulting nanoparticles at a lipid concentration of 7.33 mg/mL in 5 mM acetate (pH 5) and 75 g/L sucrose are mixed with mRNA (luciferease) at a concentration of 0.625 mg/mL in 42.5 mM sodium acetate pH 5.0, with N:P of 4.93. The nanoparticle solution and nanoparticles are mixed using a multi-inlet vortex mixer at a 3:2 volumetric ratio of nanoparticle:mRNA. Once loaded with mRNA, these intermediate nanoparticles undergo a 300 second residence time prior addition of neutralization buffer containing 120 mM TRIS pH 8.12 at a volumetric ratio of 5:1 of nanoparticle:buffer.\nFor HeLa studies evaluating luciferase protein expression, PEG-DMG-2K dissolved in a 20 mM TRIS buffer (pH 7.5) is added to the neutralized intermediate nanoparticle solution at a ratio of 1:6, bringing the solution to the final molar ratios of IL1:DSPC:cholesterol:PEG-DMG-2K of 48.5:11.1:38.9:1.5%. This nanoparticle formulation is then modified with lipid amines. In a typical example, nanoparticle formulation at a concentration of 0.18 mg/mL mRNA and a 0.56 mL volume is modified with lipid amine SA50 (467.2 nmol) prepared in buffer containing 20 mM IRIS, 14.3 mM sodium acetate, 32 g/L sucrose and 140 mM NaCl—pH 7.5 at a volumetric ratio of 1:1 of nanoparticle: buffer.\nResulting nanoparticle suspensions are filtered through a 0.8/0.2 μm capsule filter and filled into glass vials at an mRNA strength of about 0.1-1 mg/mL Biophysical data (Diameter and PDI from DLS measurements and % Encapsulation using Ribogreen assay) for luciferase mRNA nanoparticles with lipid amines is shown in Table 26."}, "[2]": {"assay": "Nanoparticle zeta potential (Malvern Zetasizer)", "type": "physicochemical", "conditions": "[mRNA] 0.01 mg/mL in 0.1×PBS, core LNP Compound 18, DSPC, Cholesterol, and DMG-PEG 2K", "experimental": "LNPs were prepared according to Example 1. Zeta potential was measured by diluting LNPs to [mRNA]0.01 mg/mL in 0.1×PBS on a Malvern Zetasizer (Nano ZS)."}, "healthy HBE cells": {"system": "healthy HBE cells", "assay": "LNP cellular uptake and protein expression in healthy HBE cells", "type": "cell-based, human", "conditions": "NPI-Luc mRNA, LNP core Compound 18, DSPC, Cholesterol, and DMG-PEG 2K", "experimental": "NP-Luc is a dual read reporter made by adding a 5×V5 tag and a C-myc nuclear localization sequence at the N-terminus of Firefly Luciferase to enhance the signal to noise ratio. Protein expression can be detected using OneGLo assays with luminescence readout or by immunofluorescence with anti-V antibodies. LNP cellular uptake and protein expression was evaluated according to the procedure outlined in Example 5."}, "[3]": {"system": "respiratory epithelium (trachea, bronchi)", "assay": "LNP protein expression in mouse respiratory epithelium after single intratracheal dose (anti-V5 IHC)", "conditions": "intratracheal ~0.7 mpk, NPI-Luc mRNA, LNP core Compound 18, DSPC, Cholesterol, and DMG-PEG 2K", "method": "(§1) Animals are anesthetized under isoflurane. The tongue is displaced and a small diameter cannula is inserted into the trachea (oropharyngeal route). The cannula tip is passed through the vocal chords, down the trachea so that the tip is very near, but not touching, the carina. Upon placement, 50 μL (mouse) or 200 μL (rat) of formulation is infused into the lungs. After 30 seconds upright, animads are released into a recovery cage and returned to their respective cages once recovered.\n(§2) Trachea, lungs and for the aerosol study nasal cavities, nasopharynx and larynx are collected for analysis. Lungs are inflated with 10% NBF fixative and trachea tied off to maintain inflation. Lungs are removed en bloc with attached trachea, bronchi and lobes. […]\n(§3) IHC was performed on FFPE sections using the Leica Bond RX autostainer. NPI-Luc protein expression was detected by anti-V5 tag antibody at a 1:100 dilution. V5 antibody was detected with the Bond Polymer Refine Detection kit followed by hematoxylin and bluing reagent counterstain. […] Trachea, lung and/or nasal cavity images were analyzed to capture total tracheal, bronchial or nasal epithelial cells and data expressed when appropriate as % V5 positive epithelial cells per total epithelial cells per animal. […]"}, "[4]": {"system": "respiratory epithelium (trachea, bronchi)", "assay": "LNP protein expression in rat respiratory epithelium after single intratracheal dose (anti-V5 IHC)", "conditions": "intratracheal ~1.2 mpk, NPI-Luc mRNA, LNP core Compound 18, DSPC, Cholesterol, and DMG-PEG 2K", "method": "as §1, §2, §3"}}, "data": [{"compound": "CC(C)c1ccc2c(c1)CC[C@H]1[C@](C)(CNC(=O)CCN(C)C)CCC[C@]21C", "note": "[SA16]", "values": [{"measurement": "Average protein expression per cell (RLU per cell)", "setting": "HeLa; Cholesterol, and Compound 428", "value": 14.5, "unit": "RLU per cell"}]}, {"compound": "CC(C)CCC[C@@H](C)[C@H]1CC[C@H]2[C@@H]3CC=C4C[C@@H](OC(=O)NCCN(C)C)CC[C@]4(C)[C@H]3CC[C@]12C", "note": "[SA4]", "values": [{"measurement": "Average protein expression per cell (RLU per cell)", "setting": "HeLa; Cholesterol, and Compound 428", "value": 248.5, "unit": "RLU per cell"}]}, {"compound": "CC[C@H](CC[C@@H](C)[C@H]1CC[C@H]2[C@@H]3CC=C4C[C@@H](SSCCC(=O)N(CCC5CC(N)C5)CCC5CC(N)C5)CC[C@]4(C)[C@H]3CC[C@]12C)C(C)C.Cl.Cl", "note": "(stereo partly drawn) [SA187, N,N-bis(2-(3-aminocyclobutyl)ethyl)-3-(((3S,8S,9S,10R,13R,14S,17R)-17-((2R,5R)-5-ethyl-6-methylheptan-2-yl)-10,13-dimethyl-2,3,4,7,8,9,10,11,12,13,14,15,16,17-tetradecahydro-1H-cyclopenta[a]phenanthren-3-yl)disulfaneyl)propanamide dihydrochloride]", "values": [{"measurement": "Diameter (nm)", "setting": "[1]", "value": 73, "unit": "nm"}, {"measurement": "PDI", "setting": "[1]", "value": 0.17}, {"measurement": "% Encapsulation (Ribogreen)", "setting": "[1]", "value": 99.0, "unit": "%"}]}, {"compound": "CC(C)CCC[C@@H](C)[C@H]1CC[C@H]2[C@@H]3CC=C4C[C@@H](OC(=O)CCCC(=O)N(CCC5CC(N)C5)CCC5CC(N)C5)CC[C@]4(C)[C@H]3CC[C@]12C.Cl.Cl", "note": "(stereo partly drawn) [SA188, (3S,8S,9S,10R,13R,14S,17R)-10,13-dimethyl-17-((R)-6-methylheptan-2-yl)-2,3,4,7,8,9,10,11,12,13,14,15,16,17-tetradecahydro-1H-cyclopenta[a]phenanthren-3-yl 5-(bis(2-(3-aminocyclobutyl)ethyl)amino)-5-oxopentanoate dihydrochloride]", "values": [{"measurement": "Diameter (nm)", "setting": "[1]", "value": 80, "unit": "nm"}, {"measurement": "PDI", "setting": "[1]", "value": 0.13}, {"measurement": "% Encapsulation (Ribogreen)", "setting": "[1]", "value": 99.6, "unit": "%"}]}, {"compound": "CC(C)CCC[C@@H](C)[C@H]1CC[C@H]2[C@@H]3CC=C4C[C@@H](OC(=O)NCCCNCCCCN)CC[C@]4(C)[C@H]3CC[C@]12C", "note": "[SA30]", "values": [{"measurement": "Zeta Potential (mV)", "setting": "[2]; β-sitosterol", "value": 8.7, "unit": "mV"}, {"measurement": "Average accumulation of LNP in healthy HBE (% positive cells)", "setting": "healthy HBE cells; β-sitosterol", "value": 49.9, "unit": "% positive cells"}, {"measurement": "Average protein expression in healthy HBE (% V5 positive cells)", "setting": "healthy HBE cells; β-sitosterol", "value": 11.9, "unit": "% V5 positive cells"}]}, {"compound": "CC(C)CCC[C@@H](C)[C@H]1CC[C@H]2[C@@H]3CC=C4C[C@@H](OC(=O)CCC(=O)N(CCCN)CCCCN)CC[C@]4(C)[C@H]3CC[C@]12C", "note": "[SA31]", "values": [{"measurement": "Zeta Potential (mV)", "setting": "[2]; β-sitosterol", "value": 8.6, "unit": "mV"}, {"measurement": "Average accumulation of LNP in healthy HBE (% positive cells)", "setting": "healthy HBE cells; β-sitosterol", "value": 43.2, "unit": "% positive cells"}, {"measurement": "Average protein expression in healthy HBE (% V5 positive cells)", "setting": "healthy HBE cells; β-sitosterol", "value": 11.1, "unit": "% V5 positive cells"}]}, {"compound": "CC[C@H](CC[C@@H](C)[C@H]1CC[C@H]2[C@@H]3CC=C4C[C@@H](OC(=O)N(CCCCNCCC(C)N)CCC(C)N)CC[C@]4(C)[C@H]3CC[C@]12C)C(C)C.Cl.Cl.Cl", "note": "(stereo partly drawn) [SA111, (3S,8S,9S,10R,13R,14S,17R)-17-((2R,5R)-5-ethyl-6-methylheptan-2-yl)-10,13-dimethyl-2,3,4,7,8,9,10,11,12,13,14,15,16,17-tetradecahydro-1H-cyclopenta[a]phenanthren-3-yl (3-aminobutyl)(4-((3-aminobutyl)amino)butyl)carbamate trihydrochloride]", "values": [{"measurement": "Diameter (nm)", "setting": "[1]", "value": 76, "unit": "nm"}, {"measurement": "PDI", "setting": "[1]", "value": 0.18}, {"measurement": "% Encapsulation (Ribogreen)", "setting": "[1]", "value": 99.6, "unit": "%"}]}, {"compound": "CC[C@H](CC[C@@H](C)[C@H]1CC[C@H]2[C@@H]3CC=C4C[C@@H](OC(=O)N(CC56CC(N)(C5)C6)CC56CC(N)(C5)C6)CC[C@]4(C)[C@H]3CC[C@]12C)C(C)C.Cl.Cl", "note": "[SA189, (3S,8S,9S,10R,13R,14S,17R)-17-((2R,5R)-5-ethyl-6-methylheptan-2-yl)-10,13-dimethyl-2,3,4,7,8,9,10,11,12,13,14,15,16,17-tetradecahydro-1H-cyclopenta[a]phenanthren-3-yl bis((3-aminobicyclo[1.1.1]pentan-1-yl)methyl)carbamate dihydrochloride]", "values": [{"measurement": "Diameter (nm)", "setting": "[1]", "value": 78, "unit": "nm"}, {"measurement": "PDI", "setting": "[1]", "value": 0.33}, {"measurement": "% Encapsulation (Ribogreen)", "setting": "[1]", "value": 98.1, "unit": "%"}]}, {"compound": "CC[C@H](CC[C@@H](C)[C@H]1CC[C@H]2[C@@H]3CC=C4C[C@@H](OC(=O)N(CCC5CC(N)C5)CCC5CC(N)C5)CC[C@]4(C)[C@H]3CC[C@]12C)C(C)C.Cl.Cl", "note": "(stereo partly drawn) [SA186, (3S,8S,9S,10R,13R,14S,17R)-17-((2R,5R)-5-ethyl-6-methylheptan-2-yl)-10,13-dimethyl-2,3,4,7,8,9,10,11,12,13,14,15,16,17-tetradecahydro-1H-cyclopenta[a]phenanthren-3-yl bis(2-(3-aminocyclobutyl)ethyl)carbamate dihydrochloride]", "values": [{"measurement": "Diameter (nm)", "setting": "[1]", "value": 73, "unit": "nm"}, {"measurement": "PDI", "setting": "[1]", "value": 0.14}, {"measurement": "% Encapsulation (Ribogreen)", "setting": "[1]", "value": 99.3, "unit": "%"}]}, {"compound": "CC(C)CCC[C@@H](C)[C@H]1CC[C@H]2[C@@H]3CC=C4C[C@@H](OC(=O)NCCNC(=N)N)CC[C@]4(C)[C@H]3CC[C@]12C", "note": "[SA23]", "values": [{"measurement": "Zeta Potential (mV)", "setting": "[2]; β-sitosterol", "value": 12.7, "unit": "mV"}, {"measurement": "Average accumulation of LNP in healthy HBE (% positive cells)", "setting": "healthy HBE cells; β-sitosterol", "value": 34.3, "unit": "% positive cells"}, {"measurement": "Average protein expression in healthy HBE (% V5 positive cells)", "setting": "healthy HBE cells; β-sitosterol", "value": 9.1, "unit": "% V5 positive cells"}]}, {"compound": "CC(C)CCC[C@@H](C)[C@H]1CC[C@H]2[C@@H]3CC=C4C[C@@H](OC(=O)N(CCCN)CCCCNCCCN)CC[C@]4(C)[C@H]3CC[C@]12C", "note": "[SA3]", "values": [{"measurement": "Average protein expression per cell (RLU per cell)", "setting": "HeLa; Cholesterol, and DMG-PEG 2K", "value": 111.0, "unit": "RLU per cell"}, {"measurement": "Zeta Potential (mV)", "setting": "[2]", "value": 10.6, "unit": "mV"}, {"measurement": "Average accumulation of LNP in healthy HBE (% positive cells)", "setting": "healthy HBE cells", "value": 43.7, "unit": "% positive cells"}, {"measurement": "Average protein expression in healthy HBE (% V5 positive cells)", "setting": "healthy HBE cells", "value": 9.4, "unit": "% V5 positive cells"}, {"measurement": "Average % V5 positive cells/total cells", "setting": "[3]; Mouse Bronchi (left lung)", "value": "9.33 % V5 positive cells/total cell"}, {"measurement": "Average % V5 positive cells/total cells", "setting": "[3]; Mouse Trachea", "value": "40.7 % V5 positive cells/total cell"}, {"measurement": "Average % V5 positive cells/total cells", "setting": "[4]; Rat Bronchi (left and right lung)", "value": "4.95 % V5 positive cells/total cell"}, {"measurement": "Average % V5 positive cells/total cells", "setting": "[4]; Rat Trachea", "value": "2.97 % V5 positive cells/total cell"}]}, {"compound": "CC(C)CCC[C@@H](C)[C@H]1CC[C@H]2[C@@H]3CC=C4C[C@@H](OC(=O)N(CCCN)CCCCN)CC[C@]4(C)[C@H]3CC[C@]12C", "note": "[SA29]", "values": [{"measurement": "Zeta Potential (mV)", "setting": "[2]; β-sitosterol", "value": 8.3, "unit": "mV"}, {"measurement": "Average accumulation of LNP in healthy HBE (% positive cells)", "setting": "healthy HBE cells; β-sitosterol", "value": 56.2, "unit": "% positive cells"}, {"measurement": "Average protein expression in healthy HBE (% V5 positive cells)", "setting": "healthy HBE cells; β-sitosterol", "value": 12.1, "unit": "% V5 positive cells"}]}]}
